Molecular target: T1, ligand binding domain of human ROR gamma (Homo sapiens, UniProt P51449)
T1 construct: NM_001001523; expressed in transfected cells; host or cells: HEK293T
T1 sequence (P51449 247-497 isoform P51449-2): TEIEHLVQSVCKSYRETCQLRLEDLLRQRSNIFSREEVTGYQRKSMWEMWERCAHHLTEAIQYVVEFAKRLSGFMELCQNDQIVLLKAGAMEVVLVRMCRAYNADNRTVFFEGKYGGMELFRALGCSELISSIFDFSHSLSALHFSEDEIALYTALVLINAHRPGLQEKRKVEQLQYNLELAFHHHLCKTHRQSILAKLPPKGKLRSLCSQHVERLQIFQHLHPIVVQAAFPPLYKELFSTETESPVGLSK
Assay: ROR gamma reporter gene assay (GAL4-RORγ LBD luciferase, Dual-Glo)
Assay type: cell-based
Conditions: HEK293T cells transfected with pM-ROR gamma, 8 concentrations 3.5 nM to 10.5 μM, 24 h incubation; read-out: result (pIC50, inhibition of RORγ transcriptional activity) (converted)
Summary of the method: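 HEK293T cells co-transfected with GAL4-DBD fused to human RORγ LBD (aa 247-497), 5×UAS firefly luciferase reporter and CMV-renilla, in charcoal-stripped serum.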

SMILES	IC50 [pM]
CS(=O)(=O)c1cc(Cl)c(C(=O)CN(Cc2cc(F)cc(F)c2)C(=O)c2cnn([C@H]3CC[C@H](C(=O)O)CC3)c2C(F)(F)F)c(Cl)c1 [Example 4, trans-4-(4-((2-(2,6-dichloro-4-(methylsulfonyl)phenyl)-2-oxoethyl)(3,5-difluorobenzyl)carbamoyl)-5-(trifluoromethyl)-1H-pyrazol-1-yl)cyclohexanecarboxylic acid]	380000
CC1(C)CCC(N(CC(=O)c2c(Cl)cncc2Cl)C(=O)c2cnn([C@H]3CC[C@H](C(=O)O)CC3)c2C(F)(F)F)CC1 [Example 169, trans-4-(4-((2-(3,5-dichloropyridin-4-yl)-2-oxoethyl)-(4,4-dimethylcyclohexyl)carbamoyl)-5-(trifluoromethyl)pyrazol-1-yl)cyclohexane-1-carboxylic acid]	40700
CC(CN(Cc1cc(F)cc(F)c1)C(=O)c1cnn([C@H]2CC[C@H](C(=O)O)CC2)c1C(F)(F)F)c1c(Cl)cccc1Cl (stereo partly drawn) [Example 108, trans-4-(4-(2-(2,6-dichlorophenyl)propyl-((3,5-difluorophenyl)methyl)carbamoyl)-5-(trifluoromethyl)pyrazol-1-yl)cyclohexane-1-carboxylic acid]	324000
CC1(C)CCC(CN(CC(=O)c2c(Cl)cncc2Cl)C(=O)c2cnn([C@H]3CC[C@H](C(=O)O)CC3)c2C(F)(F)F)CO1 (stereo partly shown) [Example 130]	174000
O=C(CN(C(=O)c1cnn([C@H]2CC[C@H](C(=O)O)CC2)c1C(F)(F)F)C1CCC(F)(F)CC1)c1c(Cl)cncc1Cl [Example 175, trans-4-(4-((2-(3,5-dichloropyridin-4-yl)-2-oxoethyl)-(4,4-difluorocyclohexyl)carbamoyl)-5-(trifluoromethyl)pyrazol-1-yl)cyclohexane-1-carboxylic acid]	603000
CC(C)(C)C(=O)N1CC(N(CC(=O)c2c(Cl)cncc2Cl)C(=O)c2cnn([C@H]3CC[C@H](C(=O)O)CC3)c2C(F)(F)F)C1 [Example 173, trans-4-(4-((2-(3,5-dichloropyridin-4-yl)-2-oxoethyl)-(1-(2,2-dimethylpropanoyl)azetidin-3-yl)carbamoyl)-5-(trifluoromethyl)pyrazol-1-yl)cyclohexane-1-carboxylic acid]	> 1e+07
O=C(CN(CC1(F)CCCC1)C(=O)c1cnn([C@H]2CC[C@H](C(=O)O)CC2)c1C(F)(F)F)c1c(Cl)cncc1Cl [Example 194, trans-4-(4-((2-(3,5-dichloropyridin-4-yl)-2-oxoethyl)-((1-fluorocyclopentyl)methyl)carbamoyl)-5-(trifluoromethyl)pyrazol-1-yl)cyclohexane-1-carboxylic acid]	14100
O=C(CN(Cc1ccc(F)cc1)C(=O)c1cnn([C@H]2CC[C@](O)(C(=O)O)CC2)c1C(F)(F)F)c1c(Cl)cncc1Cl [Example 105, cis-4-(4-((2-(3,5-dichloropyridin-4-yl)-2-oxoethyl)-((4-fluorophenyl)methyl)carbamoyl)-5-(trifluoromethyl)pyrazol-1-yl)-1-hydroxycyclohexane-1-carboxylic acid]	204000
CC1(C)[C@@H]2C[C@H](N(CC(=O)c3c(Cl)cc(F)cc3Cl)C(=O)c3cnn([C@H]4CC[C@](C)(C(=O)O)CC4)c3C(F)(F)F)C[C@@H]21 [Example 199, trans-4-(4-((2-(2,6-dichloro-4-fluorophenyl)-2-oxoethyl)-((1R,3r,5S)-6,6-dimethyl-3-bicyclo[3.1.0]hexanyl)carbamoyl)-5-(trifluoromethyl)pyrazol-1-yl)-1-methylcyclohexane-1-carboxylic acid]	5010
O=C(CN(Cc1cc(F)cc(F)c1)C(=O)c1cnn([C@H]2CC[C@H](C(=O)O)CC2)c1C(F)(F)F)c1ncc(C(F)(F)F)cc1Cl [Example 152, trans-4-(4-((2-(3-chloro-5-(trifluoromethyl)pyridin-2-yl)-2-oxoethyl)-((3,5-difluorophenyl)methyl)carbamoyl)-5-(trifluoromethyl)pyrazol-1-yl)cyclohexane-1-carboxylic acid]	2.82e+06

Further lines, results first:

IC50 [pM]	SMILES
21400	COc1cccc(Cl)c1C(=O)CN(C(=O)c1cnn(C23CCC(C(=O)O)(CC2)CC3)c1C(F)(F)F)[C@H]1C[C@@H]2[C@H](C1)C2(C)C [Example 248, 4-(4-((2-(2-chloro-6-methoxyphenyl)-2-oxoethyl)-((1R,3r,5S)-6,6-dimethyl-3-bicyclo[3.1.0]hexanyl)carbamoyl)-5-(trifluoromethyl)pyrazol-1-yl)bicyclo[2.2.2]octane-1-carboxylic acid]
11500	CC(C)(C)CN(CC(=O)c1c(Cl)cc(Cl)cc1Cl)C(=O)c1cnn(C23CCC(C(=O)O)(CC2)CC3)c1C(F)(F)F [Example 246, 4-(4-(2,2-dimethylpropyl-(2-oxo-2-(2,4,6-trichlorophenyl)ethyl)carbamoyl)-5-(trifluoromethyl)pyrazol-1-yl)bicyclo[2.2.2]octane-1-carboxylic acid]
309000	CC1(C)[C@@H]2C[C@H](N(CCc3n[nH]c4cccc(Cl)c34)C(=O)c3cnn([C@H]4CC[C@](C)(C(=O)O)CC4)c3C(F)(F)F)C[C@@H]21 [Example 376, trans-4-(4-((2-(4-chloro-1H -indazol-3-yl)ethyl)((1R,3r,5S)-6,6-dimethylbicyclo[3.1.0]hexan-3-yl)carbamoyl)-5-(trifluoromethyl)-1H-pyrazol-1-yl)-1-methylcyclohexanecarboxylic acid]
60300	CC(C1CC2(CC2)C1)N(CC(=O)c1c(Cl)cncc1Cl)C(=O)c1cnn([C@H]2CC[C@H](C(=O)O)CC2)c1C(F)(F)F (stereo partly drawn) [Example 204, trans-4-(4-((2-(3,5-dichloropyridin-4-yl)-2-oxoethyl)-(1-spiro[2.3]hexan-5-ylethyl)carbamoyl)-5-(trifluoromethyl)pyrazol-1-yl)cyclohexane-1-carboxylic acid]
29500	CC1(C)CCC(N(CC(=O)c2c(Cl)cccc2Cl)C(=O)c2cnn([C@H]3CC[C@](C)(C(=O)O)CC3)c2Cl)CC1 [Example 389, trans-4-(5-chloro-4-((2-(2,6-dichlorophenyl)-2-oxoethyl)-(4,4-dimethylcyclohexyl)carbamoyl)pyrazol-1-yl)-1-methylcyclohexane-1-carboxylic acid]
≥ 1e+07	COc1cccc(Cl)c1[C@H](O)CN(CC(C)(C)C)C(=O)c1cnn([C@H]2CC[C@](C)(C(=O)O)CC2)c1C(F)(F)F [Example 357, trans-4-(4-(((2S)-2-(2-chloro-6-methoxyphenyl)-2-hydroxyethyl)-(2,2-dimethylpropyl)carbamoyl)-5-(trifluoromethyl)pyrazol-1-yl)-1-methylcyclohexane-1-carboxylic acid]
513000	CC(COC(C)(C)C)N(CC(=O)c1c(Cl)cncc1Cl)C(=O)c1cnn([C@H]2CC[C@](C)(C(=O)O)CC2)c1C(F)(F)F (stereo partly drawn) [Example 332, trans-4-(4-((2-(3,5-dichloropyridin-4-yl)-2-oxoethyl)-(1-((2-methylpropan-2-yl)oxy)propan-2-yl)carbamoyl)-5-(trifluoromethyl)pyrazol-1-yl)-1-methylcyclohexane-1-carboxylic acid]
676000	CC1(C)[C@@H]2C[C@H](N(CC(=O)c3ncccc3Cl)C(=O)c3cnn([C@H]4CC[C@](C)(C(=O)O)CC4)c3C(F)(F)F)C[C@@H]21 [Example 398, trans-4-(4-((2-(3-chloropyridin-2-yl)-2-oxoethyl)((1R,3r,5S}-6,6-dimethylbicyclo[3.1.0]hexan-3-yl)carbamoyl)-5-(trifluoromethyl)-1H -pyrazol-1-yl)-1-methylcyclohexanecarboxylic acid]
7940	C[C@]1(C(=O)O)CC[C@H](n2ncc(C(=O)N(CC(=O)c3c(Cl)cc(F)cc3Cl)CC3CC4(CC4)C3)c2C(F)(F)F)CC1 [Example 202, trans-4-(4-((2-(2,6-dichloro-4-fluorophenyl)-2-oxoethyl)-(spiro[2.3]hexan-5-ylmethyl)carbamoyl)-5-(trifluoromethyl)pyrazol-1-yl)-1-methylcyclohexane-1-carboxylic acid]
> 1e+07	O=C(CN(Cc1cc(F)cc(F)c1)C(=O)c1cnn([C@H]2CC[C@H](C(=O)O)CC2)c1C(F)(F)F)c1c(Cl)n[nH]c1Cl [Example 209, trans-4-(4 ((2-(3,5-dichloro-1H-pyrazol-4-yl)-2-oxoethyl)-((3,5-difluorophenyl)methyl)carbamoyl)-5-(trifluoromethyl)pyrazol-1-yl)cyclohexane-1-carboxylic acid]
5500	CC1(C)[C@@H]2C[C@H](N(CC(=O)c3c(Cl)cc(F)cc3Cl)C(=O)c3cnn(C45CCC(C(=O)O)(CC4)CC5)c3C(F)(F)F)C[C@@H]21 [Example 240, 4-(4-((2-(2,6-dichloro-4-fluorophenyl)-2-oxoethyl)-((1R,3r,5S)-6,6-dimethyl-3-bicyclo[3.1.0]hexanyl)carbamoyl)-5-(trifluoromethyl)pyrazol-1-yl)bicyclo(2.2.2)octane-1-carboxylic acid]
2690	C[C@]1(C(=O)O)CC[C@H](n2ncc(C(=O)N(CC(=O)c3c(Cl)cc(F)cc3Cl)CC3(F)CCCC3)c2C(F)(F)F)CC1 [Example 224, trans-4-(4-((2-(2,6-dichloro-4-fluorophenyl)-2-oxoethyl)-((1-fluorocyclopentyl)methyl)carbamoyl)-5-(trifluoromethyl)pyrazol-1-yl)-1-methylcyclohexane-1-carboxylic acid]

From US9365522B2, “Pyrazole amide derivative” (AMGEN INC., priority 2015, dated 2016)
